Data: ChEMBL document CHEMBL2448688, “Selection and optimization of hits from a high-throughput phenotypic screen against Trypanosoma cruzi. Exported from HEOS 25-Oct-2013. See also related datasets CHEMBL3137440 and CHEMBL3137386”
In brackets after ≈: the same amount, converted by molar mass. Several values for one entry are separate records, joined by “and”; a condition that tells them apart may be missing. Equal values may be shown once.

Columns and labels:
in vitro [1] = conditions: human, microsomes
[2] = DNDI: Lipophilicity (gLogD) at pH 3; conditions: buffer, pH 3, logD
in vitro [3] = conditions: human, microsomes, EH
in vitro [4] = conditions: human, microsomes, t (1 / 2)
Cytochrome P450 3A4 [5] = target: T1, Cytochrome P450 3A4 (Homo sapiens, UniProt P08684); experiment: DNDI: Human CYP3A4 inhibition determined using 6b-hydroxylation of testosterone
Leishmania donovani = experiment: DNDI: Leish macro in vitro at 10 uM; assay type: functional; conditions: MHOM/ET/67/L82
[6] = DNDI: Solubility in 0.01M HCl at pH 2 determined by nephelometry; conditions: 0.01M HCl, pH 2, Kinetic
[7] = DNDI: Lipophilicity (gLogD) at pH 7.4; conditions: buffer, pH 7.4, logD
Trypanosoma cruzi [8] = experiment: (§1) DNDI: Chagas in Vitro; assay type: functional, organism-based, Tulahuen C4 (LacZ)
[9] = tested on: Trypanosoma brucei rhodesiense; experiment: DNDI: HAT in Vitro; assay type: functional, organism-based, ATCC 30027
[10] = DNDI: Solubility in phosphate buffer at pH 6.5 determined by nephelometry; conditions: phosphate buffer, pH 6.5, Kinetic
[11] = (§2) DNDI: Cytotoxicity in vitro, against rat skeletal myoblast (L-6) cells; conditions: L-6 cells (skeletal myoblasts), IC50
Trypanosoma cruzi [12] = experiment: as §1; assay type: functional, Tulahuen C4 (LacZ)
L6 = experiment: as §2; conditions: L-6 cells (skeletal myoblasts)
Cytochrome P450 3A4 [13] = target: T1, Cytochrome P450 3A4; experiment: DNDI: CYP Inhibition; assay type: ADME
in vitro [14] = conditions: mouse, microsomes
in vitro [15] = conditions: rat, microsomes
[16] = DNDI: Metabolism; assay type: ADME, Microsome; conditions: rat, microsomes
in vitro [17] = conditions: mouse, microsomes; remark: listed apart in the source
in vitro [18] = conditions: rat, microsomes; remark: listed apart in the source
in vitro [19] = conditions: rat, hepatocytes
[20] = DNDI: Cytotoxicity in vitro, against human lung fibroblast (MRC-5) cells; conditions: MRC-5 cells (lung fibroblasts)
Leishmania infantum = experiment: DNDI: Leish (macro) in Vitro; assay type: functional, organism-based, MHOM/MA(BE)/67
CYP3A4 [21] = target: T2, CYP3A4 (Homo sapiens, UniProt P08684); experiment: DNDI: Human CYP3A4 inhibition at 10 uM determined using 6b-hydroxylation of testosterone; conditions: probe testosterone (6b-hydroxylation)
CYP3A4 [22] = target: T2, CYP3A4; experiment: DNDI: Human CYP3A4 inhibition at 1 uM determined using 6b-hydroxylation of testosterone; conditions: probe testosterone (6b-hydroxylation)
[23] = (§3) DNDI: Stability, 4 hour; assay type: ADME, cell-free; conditions: mouse, plasma
[24] = as §3; assay type: ADME, tissue-based; conditions: mouse, blood
[25] = Trypanosoma cruzi, Tulahuen C4 (LacZ)

T1 sequence (P08684 whole entry): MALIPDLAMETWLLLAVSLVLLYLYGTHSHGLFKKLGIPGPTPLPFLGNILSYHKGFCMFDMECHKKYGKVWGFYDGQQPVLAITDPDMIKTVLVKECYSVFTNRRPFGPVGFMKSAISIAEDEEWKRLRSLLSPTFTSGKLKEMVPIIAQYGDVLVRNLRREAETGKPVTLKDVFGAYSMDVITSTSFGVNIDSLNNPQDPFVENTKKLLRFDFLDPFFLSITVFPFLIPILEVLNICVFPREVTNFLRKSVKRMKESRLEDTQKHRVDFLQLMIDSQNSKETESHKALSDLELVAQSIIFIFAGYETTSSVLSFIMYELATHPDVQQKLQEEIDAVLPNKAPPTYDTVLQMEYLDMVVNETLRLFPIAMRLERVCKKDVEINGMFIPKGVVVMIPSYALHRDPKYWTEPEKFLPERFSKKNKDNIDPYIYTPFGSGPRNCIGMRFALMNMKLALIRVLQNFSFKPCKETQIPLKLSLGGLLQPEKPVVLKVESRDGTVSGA
T2 sequence (P08684 whole entry): as above

| SMILES | microsomal CLint (in vitro [1]) | chromatographic logD [2] | hepatic extraction ratio (in vitro [3]) | half-life (in vitro [4]) | IC50 (Cytochrome P450 3A4 [5]) | solubility kinetic [6] | chromatographic logD [7] | IC50 (Trypanosoma cruzi [8]) | IC50 (Trypanosoma cruzi [8]; [25]) | IC50 ([9]; Trypanosoma brucei, ATCC 30027) | solubility kinetic [10] | IC50 [11] | IC90 (Trypanosoma cruzi [12]; [25]) | IC50 (L6) | IC90 (Trypanosoma cruzi [12]) | also measured |
| --- | --- | --- | --- | --- | --- | --- | --- | --- | --- | --- | --- | --- | --- | --- | --- | --- |
| N#Cc1ccc(-n2ccnc2)c(NC(=O)c2cnc(-c3ccccc3)nc2)c1 | 15 µL/min/mg | 1.9 | 0.46 | 1.88 h | > 20 µM | 0.05 mg/mL (≈ 136 µM) | 2.7 | 0.084 µM | > 0.1 µM | > 10 µM | 0.0031 mg/mL (≈ 8.46 µM) | > 100 µM | > 0.1 µM | – | – | inhibition at 10 µM (Leishmania donovani): 53.5% |
| O=c1c2ccccc2nc(-c2ccc(-c3ccccc3)cc2)n1Cc1cccnc1 | 48 µL/min/mg | 3.4 | 0.73 | 0.6 h | – | > 0.1 mg/mL | 3.8 | 0.026 µM | 0.0255 µM | – | 0.0016 mg/mL (≈ 4.11 µM) | 16.1 µM | – | 19.4 µM | 0.257 µM and > 0.1 µM | IC50 [9]: 23.3 µM and > 10 µM; IC50 (Cytochrome P450 3A4 [13]): > 20 µM |
| CS(=O)(=O)c1ccc(-n2ccnc2)c(NC(=O)c2cnc(-c3ccccc3)nc2)c1 | < 7 µL/min/mg | 1.7 | < 0.28 | > 4.17 h | > 20 µM | 0.05 mg/mL (≈ 119 µM) | 2.3 | – | 0.09 µM | > 10 µM | 0.0125 mg/mL (≈ 29.8 µM) | > 100 µM | > 0.1 µM | – | – | inhibition at 10 µM (Leishmania donovani): 48.2% |
| CO/N=C(\C)c1ccc(-n2ccnc2)c(NC(=O)c2ccc(-c3ccccc3)cc2)c1 | 30 µL/min/mg | 3.1 | – | 0.967 h | – | > 0.1 mg/mL | 3.9 | – | 0.0204 µM | – | < 0.0016 mg/mL | > 100 µM | 0.065 µM | – | – | half-life (in vitro [14]): 0.933 h; microsomal CLint (in vitro [15]): 43 µL/min/mg; CLblood [16]: 2.1 L/h/kg; microsomal CLint (in vitro [17]): 31 µL/min/mg; half-life (in vitro [18]): 0.667 h; CLhep predicted (in vitro [19]): 1.47 L/h/kg |
| CN(CC(O)COc1ccc2cc(Br)ccc2c1)C1CCCCC1 (configuration not stated) | 13 µL/min/mg | 2.6 | 0.34 | 2.2 h | > 10 µM | > 0.1 mg/mL | 3.6 | 4.64 µM | 4.55 µM | – | > 0.1 mg/mL | 16.6 µM | 8.48 µM | 17 µM | 7.84 µM | IC50 [20]: > 64 µM; IC50 (Leishmania infantum): 1.68 µM and 2 µM; IC50 (Leishmania infantum; Leishmania infantum, MHOM/MA(BE)/67): 1.26 µM; inhibition at 10 µM (CYP3A4 [21]): 11%; inhibition at 1 µM (CYP3A4 [22]): 5% |
| CC(C)N(C)CC(O)COc1ccc2cc(Br)ccc2c1 (configuration not stated) | < 7 µL/min/mg | 2.6 | < 0.23 | > 4.17 h | > 20 µM | > 0.1 mg/mL | 3.6 | 6.4 µM and 5.43 µM and 5.75 µM and 5.78 µM and 6.57 µM | > 10 µM | – | > 0.1 mg/mL | 19.2 µM | 8.78 µM | 34.8 µM | 8.95 µM and 8.79 µM and > 10 µM | IC50 [20]: > 64 µM; IC50 (Leishmania infantum): 6.73 µM and 2.38 µM; IC50 [9]: 0.507 µM and 1.55 µM |
| CCOC(=O)c1ccc(-n2ccnc2)c(NC(=O)c2cnc(-c3ccccc3)nc2)c1 | 11 µL/min/mg | – | 0.38 | 2.67 h | > 20 µM | – | – | – | 0.003 µM | > 10 µM | – | > 100 µM | 0.037 µM | – | – | remaining at 4 h [23]: 1.8%; remaining at 4 h [24]: 0.4% |
